From US20050013852A1, “Dermal for amino laevulinic acid” (priority 2000, published 2005)

Key:
[1] = sedimentation (sinking speed) of ALA particles in NE solution; type: physicochemical; conditions: sieve fraction 60-90 μm
[2] = fresh ALA solution, approximate physiological value of 8, after two weeks; cited from earlier work

- Sinking speed of the ALA particles in solution ([1]; NE 12 % g/g in solution): 396 μm/10 s
- Sinking speed of the ALA particles in solution ([1]; NE 18 % g/g in solution): 119 μm/10 s
- Sinking speed of the ALA particles in solution ([1]; NE 24 % g/g in solution): 3 μm/10 s
SMILES: NCC(=O)CCC(=O)O [ALA, 5-aminolaevulinic acid]
- undecomposed active substance [2]: approx. 10%
